Results on two compounds are retold here after US6955891B2 (priority 2002, dated 2005).

In one experiment the target is Lethal factor (Bacillus anthracis, UniProt P15917). To be noted: cited from earlier work.
In experiment [1] the target is Bacillus anthracis lethal factor (Bacillus anthracis, UniProt P15917).
Bacillus anthracis lethal factor, sequence (P15917 34-809 limits assumed): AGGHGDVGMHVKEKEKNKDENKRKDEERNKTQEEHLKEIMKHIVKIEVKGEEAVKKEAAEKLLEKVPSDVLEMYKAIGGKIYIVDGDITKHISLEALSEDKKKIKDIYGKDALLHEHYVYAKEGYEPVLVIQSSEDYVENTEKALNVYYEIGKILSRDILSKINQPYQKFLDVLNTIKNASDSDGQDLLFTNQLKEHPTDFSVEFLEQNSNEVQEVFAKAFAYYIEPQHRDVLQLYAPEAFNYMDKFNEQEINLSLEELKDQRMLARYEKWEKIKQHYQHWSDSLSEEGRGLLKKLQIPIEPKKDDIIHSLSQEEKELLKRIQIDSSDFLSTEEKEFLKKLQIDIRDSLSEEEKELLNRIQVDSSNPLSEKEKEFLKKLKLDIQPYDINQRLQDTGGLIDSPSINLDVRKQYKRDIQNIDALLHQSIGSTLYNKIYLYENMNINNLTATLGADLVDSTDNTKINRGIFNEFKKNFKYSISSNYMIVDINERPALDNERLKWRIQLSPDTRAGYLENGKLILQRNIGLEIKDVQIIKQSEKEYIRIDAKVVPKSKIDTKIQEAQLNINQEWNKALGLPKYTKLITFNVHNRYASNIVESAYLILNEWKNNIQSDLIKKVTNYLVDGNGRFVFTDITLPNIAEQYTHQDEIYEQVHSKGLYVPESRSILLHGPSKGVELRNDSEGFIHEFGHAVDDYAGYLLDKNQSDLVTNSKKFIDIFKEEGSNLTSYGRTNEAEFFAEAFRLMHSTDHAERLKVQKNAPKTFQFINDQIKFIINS

Lethal factor, sequence (P15917 34-809 limits assumed): as above

On to `c1cnc2c(c1)ccc1cccnc12` [1,10-phenanthroline], for which the “effect on in vitro cleavage of synthetic peptides by lethal factor” value on Lethal factor is recorded as “inhibited”.

On to “(Cou)NleKKKKVLP IQLNAATDK(Q-35)GG-NH2 [(Cou)Consensus(K(QSY-35)GG)-NH2]”, for which the “signal/background (S/B) at 100% cleavage” value in experiment [1] is listed as “largest S/B”.
